Columns and labels:
[1] = test system: insect pest eggs; assay: Exposure of insect pest eggs to formulations, percent killed; format: in vivo
Excerpt: As well understood, the percentage of eggs killed may depend on the concentration of the ovicide and the exposure time to the ovicide (e.g., the time for applying). Thus, applying or contacting of the compositions and formulations of the invention generally results in the killing of about 45% to about 100% (e.g., about 45, 50, 55, 60, 65, 70, 75, 80, 85, 90, 95, 100%) of the insect pest eggs for any given time period. However, the compositions and formulations are shown to work very quickly and efficiently, resulting in a killing of 100% of the insect pest eggs following a very short contact or application time. Thus, in some embodiments, a one to five second exposure results in a 100% kill of the insect pest eggs. In some embodiments, exposure of insect pest eggs to a formulation of 1% 2-undecanone and 1% DE for 3 seconds kills about 100% of the insect pest eggs. In some embodiments, exposure of insect pest eggs to a formulation of 8% 2-undecanone and 1% DE for 1 second kills about 100% of the insect pest eggs. In some embodiments, exposure of insect pest eggs to a formulation of 5% 2-undecanone for 1 second kills about 70% of the insect pest eggs. In some embodiments, exposure of insect pest eggs to a formulation of 15% 2-undecanone for about one to about five second kills about 100% of the insect pest eggs. […]

[2] = test system: cotton bollworm eggs; assay: Killing insect eggs, cotton bollworm model system (3 second dip, egg hatch over 4 days); format: in vivo; settings: 2-undecanone from 1 to 8% in absolute ethanol, hatch assessed 4 days, highest level of the dose response
Excerpt: Due to their obligate parasitic lifestyle, lice, head lice, in particular, are very difficult to obtain. Thus, bollworm eggs were used in place of lice eggs for the experiments showing efficacy of the treatments described herein. […] Therefore, it is understood that if the treatment works on bollworm eggs, it will also work on the eggs of head lice. Further, the experiments using body lice, a recognized proxy for head lice, confirmed the effectiveness of the treatment with the formulations of this invention.
All treatments were conducted by dipping the bollworm eggs in the different treatments for 3 seconds, allowing the eggs to dry at room temperature, and then assessing egg hatch for the following 4 days. The eggs typically hatch under these conditions in 2.5 days. The solvent used in these experiments was absolute ethanol.

[3] = test system: lice; assay: Killing of lice stages; format: in vivo; settings: all stages of the lice
[4] = test system: eggs; assay: Residual activity against eggs; format: in vivo; settings: after application
[5] = Evaporation of 2-undecanone after application; format: physicochemical; settings: typically

**Q.** For `CCCCCCCCCC(C)=O` [2-undecanone], which “insect pest eggs killed” value ([1]; 5% 2-undecanone, exposure 1 second) is on record?
**A.** about 70%

**Q.** And the “insect pest eggs killed” value ([1]; 15% 2-undecanone, exposure about one to about five second)?
**A.** about 100%

**Q.** What about the egg mortality [2] of the same compound?
**A.** about 90%

**Q.** What about the “killing of lice stages” value [3] of the same compound?
**A.** kill all stages of the lice

**Q.** And the “residual activity against eggs” value [4]?
**A.** minimal residual activity

**Q.** And the time to evaporate [5]?
**A.** ≤ 30 min

Source: patent US10779532B2, “Methods and compositions for killing of insect pest eggs” (North Carolina State University, priority 2016, dated 2020)
